Assay results from ChEMBL document CHEMBL1201862, “PubChem BioAssay data set” (2004).
Where “and” joins values, the source holds several entries; their conditions need not be identical. Identical values can stand only once. Calls of active or inactive are those of the source.

Legend:
[1] = target: Endoplasmic reticulum aminopeptidase 1 (Homo sapiens, UniProt Q9NZ08); test: inhibition of human ERAP1 enzyme activity – biochemical, cherry-pick, set 2, plate reader, dose response (AID 743314)
[2] = target: T1, CAAX prenyl protease 2 (Saccharomyces cerevisiae S288c, UniProt Q03530); assay type: biochemical
T1 sequence (Q03530 whole entry): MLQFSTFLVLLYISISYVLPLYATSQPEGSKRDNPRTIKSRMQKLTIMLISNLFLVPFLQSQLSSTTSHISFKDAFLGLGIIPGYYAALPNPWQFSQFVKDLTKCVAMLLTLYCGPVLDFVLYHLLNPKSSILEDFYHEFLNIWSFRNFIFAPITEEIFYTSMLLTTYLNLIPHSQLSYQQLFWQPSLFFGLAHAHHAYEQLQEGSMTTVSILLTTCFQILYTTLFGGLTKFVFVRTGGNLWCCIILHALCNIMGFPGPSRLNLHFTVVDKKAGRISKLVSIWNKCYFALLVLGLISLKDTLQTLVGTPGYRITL

[3] = viability loss in HEK293 kidney cells – cell-based, cherry-picks, set 5, cytotoxicity control, dose response (AID 1053117); assay type: functional
[4] = viability loss in HepG2 hepatoma cells – cell-based, cherry-picks, set 5, cytotoxicity control, dose response (AID 1053118); assay type: functional
[5] = viability loss in A549 lung cancer cells – cell-based, cherry-picks, […], cytotoxicity control, dose response (AID 1053119); assay type: functional
[6] = cells; settings: A549
[7] = viability loss in HepG2 hepatoma cells – cell-based, ATP luminescence, cherry-pick, activator set 2, cytotoxicity control, dose response (AID 1053143); assay type: functional
[8] = inhibition of Env-driven cell fusion – HIV entry, plate reader, dry powder, dose response (AID 687023); assay type: functional, cell-based
[9] = blockers of HIV-1 envelope-mediated cell-cell fusion – cherry-pick, dose response (AID 652057); assay type: functional, cell-based
[10] = HIV-1 AD8 envelope cell-cell fusion blockers – cherry-pick, dose response (AID 652062); assay type: functional, cell-based;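 also: luciferase signal from cell-cell fusion driven by HIV-1 clade B AD8 Env; potency is for inhibitors of fusion seen as a drop in luminescence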
[11] = EF1alpha-driven Renilla reporter with control 3'UTR suppression – Clone20-Shn3RL cells, dual-Glo, cherry-pick, set 2, counter-screen for Shn3 3'UTR targeting project, dose response (AID 720724); assay type: functional, cell-based; settings: Dual-Go Shn3RL
[12] = reduction of Shn3 3'UTR-driven luciferase in osteoblasts – cell-based, Clone20 osteoblasts, firefly luciferase, cherry-picked, dose response (AID 624132); assay type: functional;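 also: firefly luciferase luminescence from reporter carrying the Shn3 3'UTR in osteoblasts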
[13] = non-specific 3'UTR reporter inhibition in Clone20-Shn3RL – cell-based, Renilla luciferase, cherry-picked, counter-screen for Shn3 inhibitor project, dose response (AID 624133); assay type: functional
[14] = Shn3 3'UTR reporter signal decrease – cell-based, Clone20 osteoblasts, firefly luciferase, cherry-pick, set 2, Schnurri-3 inhibitor project, dose response (AID 720490); assay type: functional;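 also: actives lower the luminescence signal as inhibitors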
[15] = luciferase reporter signal suppression in cells – H4 neuroglioma cells, luminescence, dose response (AID 1990); assay type: functional, cell-based
[16] = Shn3 transcript knock-down in Clone20 cells – cell-based, qPCR, cherry-pick, dose response (AID 743415); assay type: functional
[17] = alpha-synuclein stem-loop luciferase translation blockers – H4 neuroglioma cells, luminescence, confirmation (AID 1988); assay type: functional, cell-based
[18] = loss of viability in HepG2 cells – cell-based, CellTiter-Glo, cherry-picked, cytotoxicity control for Shn3 inhibitor project, dose response (AID 624134); assay type: functional
[19] = inhibitors of TRPM1-promoter reporter in SK-MEL-5 – cell-based, luciferase, dry powder, set 8, MITF inhibitor project, dose response (AID 624430); assay type: functional
[20] = MITF: Counter assay: A375 proliferation Measured in Cell-Based System Using Plate Reader - 2084-03_Inhibitor_Dose_DryPowder_Activity_Set8.; assay type: functional; settings: A-375
[21] = cytotoxicity in MITF-independent A375 cells – cell-based, CellTiter-Glo luminescence, dry powder, set 9, counter-screen for MITF modulator project, dose response (AID 651591); assay type: functional; settings: A-375
[22] = melanocyte viability loss, MITF-dependent cells, cell-based, plate reader, dry powder, cytotoxicity control, dose response (AID 651920); assay type: functional
[23] = growth inhibition of MALME3 cells – cell-based, CellTiter-Glo luminescence, dry powder, set 5, orthogonal assay for MITF inhibitor project, dose response (AID 651584); assay type: functional; settings: MALME-3
[24] = MITF Orthogonal Assay: SK-MEL-5 CTG Assay Measured in Cell-Based System Using Plate Reader - 2084-02_Inhibitor_Dose_DryPowder_Activity_Set7.; assay type: functional
[25] = inhibitors of TRPM1-promoter reporter in SK-MEL-5 – cell-based, luciferase, dry powder, set 9, MITF inhibitor project, dose response (AID 651588); assay type: functional
[26] = MITF Orthogonal Assay: MALME3 CTG Assay Measured in Cell-Based System Using Plate Reader - 2084-04_Inhibitor_Dose_DryPowder_Activity_Set6.; assay type: functional; settings: MALME-3
[27] = growth inhibition of SK-MEL-5 melanoma cells – cell-based, CellTiter-Glo luminescence, dry powder, set 8, orthogonal assay for MITF inhibitor project, dose response (AID 651586); assay type: functional
[28] = Late stage assay provider results from the probe development effort to identify inhibitors of the Plasmodium falciparum M18 Aspartyl Aminopeptidase (M18AAP): radiolabel-based cell-based dose response assay to identify compounds that inhibit P. falciparum growth in RBCs, Set 2..; assay type: functional

Chain of Endoplasmic reticulum aminopeptidase 1 (Q9NZ08 whole entry): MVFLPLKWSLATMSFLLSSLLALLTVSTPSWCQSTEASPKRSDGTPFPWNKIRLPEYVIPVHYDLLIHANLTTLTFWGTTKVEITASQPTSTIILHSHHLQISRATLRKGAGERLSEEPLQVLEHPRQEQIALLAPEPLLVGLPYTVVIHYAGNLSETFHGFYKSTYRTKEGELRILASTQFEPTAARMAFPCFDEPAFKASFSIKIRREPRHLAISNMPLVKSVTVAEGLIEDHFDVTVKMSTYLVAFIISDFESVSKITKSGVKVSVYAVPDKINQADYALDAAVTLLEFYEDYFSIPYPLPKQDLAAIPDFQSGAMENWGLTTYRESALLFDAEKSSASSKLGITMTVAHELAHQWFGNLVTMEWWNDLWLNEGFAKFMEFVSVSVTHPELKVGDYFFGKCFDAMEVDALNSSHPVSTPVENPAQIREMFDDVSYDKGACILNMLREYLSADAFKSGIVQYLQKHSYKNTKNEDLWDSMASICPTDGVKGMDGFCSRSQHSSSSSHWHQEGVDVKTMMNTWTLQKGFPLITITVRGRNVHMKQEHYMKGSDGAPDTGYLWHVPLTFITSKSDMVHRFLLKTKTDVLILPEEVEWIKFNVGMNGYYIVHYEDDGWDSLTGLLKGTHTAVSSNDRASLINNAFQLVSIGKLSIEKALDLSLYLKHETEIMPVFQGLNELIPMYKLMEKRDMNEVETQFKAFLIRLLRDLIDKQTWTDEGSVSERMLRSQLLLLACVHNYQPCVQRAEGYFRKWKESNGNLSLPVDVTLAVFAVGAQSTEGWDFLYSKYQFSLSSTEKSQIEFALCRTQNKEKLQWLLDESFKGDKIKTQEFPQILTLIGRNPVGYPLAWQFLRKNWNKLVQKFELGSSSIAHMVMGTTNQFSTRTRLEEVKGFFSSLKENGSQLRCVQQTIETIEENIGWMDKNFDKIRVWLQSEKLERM

CCOC(=O)C[n+]1ccc2c([nH]c3ccccc32)c1C
AC50 [1]: 11.4 µM (active) | AC50 [2]: > 100 µM (inactive)

CO[C@H]1CN(C)C(=O)c2ccc(NC(=O)c3ccc(-c4ccccc4)cc3)cc2OC[C@H](C)NC[C@H]1C
AC50 [3]: > 52 µM (inactive) | AC50 [4]: 32.2 µM (active) | AC50 [5]: 33.9 µM (active)

Cc1ccc2c(c1)N(C(=O)CCC(=O)NCCCN1CCOCC1)CC(C)O2 (stereo not drawn)
AC50 [6]: > 52 µM (inactive)

O=C(Nc1ncccc1O)c1ccc(Oc2ccccc2)cc1
AC50 [7]: 26 µM (active)

CCCC#Cc1ccc2c(c1)O[C@@H](CN(C)S(=O)(=O)c1cccc(F)c1)[C@@H](C)CN([C@H](C)CO)S2(=O)=O
AC50 [8]: 12.4 µM (active) | AC50 [9]: 10.8 µM (active) | AC50 [10]: 7.8 µM (active)

COc1ccc(NC(=O)c2nc(S(=O)(=O)Cc3cccc(C)c3)ncc2Cl)c(OC)c1
AC50 [11]: 3.35 µM (active) | AC50 [12]: 0.299 µM (active) | AC50 [13]: 8.06 µM (active) | AC50 [14]: 1.48 µM (active) | EC50 [15]: 19.2 µM (active) | AC50 [16]: 10 µM (active) | EC50 [17]: 36.7 µM (active) | AC50 [18]: > 70 µM (inactive)

NS(=O)(=O)c1ccc(NC2=CC(=O)c3ccccc3C2=O)cc1
AC50 [19]: 1.16 µM (active) | AC50 [20]: > 70 µM (inactive) | AC50 [21]: > 70 µM (inactive) | AC50 [22]: 7.15 µM (active) and 7.63 µM (active) | AC50 [23]: 0.703 µM (active) | AC50 [24]: 0.0771 µM (active) | AC50 [25]: 1.23 µM (active) | AC50 [26]: 0.703 µM (active) | AC50 [27]: 0.751 µM (active)

Cc1c(OCc2ccccc2)c(=O)ccn1CCNc1c2ccccc2nc2ccccc12
IC50 [28]: 4 µM (active)
